The text below walks through data of article PMC10668861 (2023).

SMILES strings stand for the structures.

In the assay the test system is F21D (DNA, G4) GGGTTAGGGTTAGGGTTAGGG
As to the kind of experiment: FRET melting. Conditions: 5 mM K+, 95 mM Li+; 10 mM lithium cacodylate, pH 7.2; 0.2 µM DNA, 4 µM compound.

`[Ru+2].c1ccc(-c2ccccn2)nc1.c1ccc(-c2ccccn2)nc1.c1ccc2nc3c4cccnc4c4ncccc4c3nc2c1`: the ΔTm amounted to 14 ± 1 °C.
